In experiment [1] the test system is Ba/F3 EGFR D770_N771 ins SVD. In words: In vivo pharmacodynamic study, Ba/F3-EGFR-D770_N771 ins SVD subcutaneous xenograft model. Also noted: species or system nude mice. The settings on record: 30 mg/kg, P.O, QD * 14 days. On the procedure: The experimental design and results were shown in Table 9, wherein P.O referred to administered orally; QD: once a day; TGI (Tumor volume inhibition rate)=(1-Tumor weight of the treatment group/Tumor weight of the control group)*100%. The cell line Ba/F3 EGFR D770_N771 ins SVD was cultured in 37° C., 5% CO2 with RPMI1640+10% fetal bovine serum+1% double antibody, and passaged 2-3 times a week. When the cell saturation was 80-90% and the number of cells met the requirement, the cells were collected. 0.2 mL (1*10^6) cells were subcutaneously inoculated into the right back of 6-8 weeks old female nude mice weighing 18-22 g. When the average tumor volume reached approximately 150-200 mm^3, grouping and drug administration started. Before the start of drug administration, all animals were weighed and the tumor volume was measured with vernier calipers. Mice were randomly grouped according to tumor volume to ensure that tumor volumes were similar between groups. Three mice in each group were administered orally once daily, and the inoculation site was observed after administration. Tumor volume and mouse body weight were measured twice a week.

The target in experiment [2] is Ba/F3-FL-EGFR-V769-D770 ins ASV (Homo sapiens, UniProt P00533, DUP767-769, cells depend on it). Nature of the experiment: Cell proliferation inhibition (CellTiter-Glo), EGFR exon 20 insertion engineered cells. The conditions noted are these: 72 h, read-out: IC50, Ba/F3-FL-EGFR V769-D770ins ASV. The experiment is classed as cell-based. On the procedure:
(§1) The selected engineering cells Ba/F3-FL-EGFR-V769-D770 ins ASV, Ba/F3-FL-EGFR-D770-N771 ins SVD, Ba/F3-FL-EGFR-H773-V774 ins NPH, Ba/F3-FL-EGFR-A763-Y764 ins FQEA, Ba/F3-HER2-A775-G776 ins YVMA were provided by Hefei PreceDo Biomedical Technology Co., LTD and were validated prior to use in this study.
(§2) A 20× stock of the compound to be tested was prepared for use, with 9 concentrations in 3-fold gradient dilution, diluted from 1 μM.
(§3) The logarithmic growth phase cell suspension was inoculated into 96-well white cell culture plates with 95 μL volume per well (2000 cells/well). 5 μL of 20× Compound to be tested was added to the plate containing 95 μL of cell suspension according to the plate spreading diagram, and then mixed well. The plate was incubated in a 5% CO2 incubator at 37° C. for 72 h. The proliferation inhibition activity of the compounds was determined by the CellTiter-Glo method, and the fluorescence value per well, RLU, was obtained from the SpectraMax Paradigm reading. Inhibition Rate data were processed using the following formula: Inhibition Rate (Inh %)=100−(RLU compound−RLU blank)/(RLU control−RLU blank)*100%. The cell viability corresponding to different concentrations of compounds was calculated in EXCEL, and then GraphPad Prism software was used to plot the cell viability curve and calculate the IC50 value.
A general note: In ATP-based viability assays light output follows the ATP content of the culture.

Experiment [3] has as its target Ba/F3-FL-EGFR-D770-N771 ins SVD (Homo sapiens, UniProt P00533, DUP768-770, cells depend on it). The experiment is described as above. The conditions noted are these: 72 h, read-out: IC50, Ba/F3-FL-EGFR D770-N771ins SVD. The experiment is classed as cell-based. On the procedure:
as §1, §2, §3

In experiment [4] the target is Ba/F3-FL-EGFR-A763-Y764 ins FQEA (Homo sapiens, UniProt P00533, INS763FQEA, cells depend on it). The description is as above. It is filed as cell-based. The settings on record: 72 h, read-out: IC50, Ba/F3-FL-EGFR A763-Y764ins FQEA. The protocol:
as §1, §2, §3

Experiment [5] addresses Ba/F3-FL-EGFR-H773-V774 ins NPH (Homo sapiens, UniProt P00533, DUP771-773, cells depend on it). The description is as above. The experiment is classed as cell-based. The conditions noted are these: 72 h, read-out: IC50, Ba/F3-FL-EGFR H773-V774ins NPH. On the procedure:
as §1, §2, §3

Molecules are shown by their SMILES.

Sequence of Ba/F3-FL-EGFR-D770-N771 ins SVD (P00533 with tags, fused parts or gaps DUP768-770): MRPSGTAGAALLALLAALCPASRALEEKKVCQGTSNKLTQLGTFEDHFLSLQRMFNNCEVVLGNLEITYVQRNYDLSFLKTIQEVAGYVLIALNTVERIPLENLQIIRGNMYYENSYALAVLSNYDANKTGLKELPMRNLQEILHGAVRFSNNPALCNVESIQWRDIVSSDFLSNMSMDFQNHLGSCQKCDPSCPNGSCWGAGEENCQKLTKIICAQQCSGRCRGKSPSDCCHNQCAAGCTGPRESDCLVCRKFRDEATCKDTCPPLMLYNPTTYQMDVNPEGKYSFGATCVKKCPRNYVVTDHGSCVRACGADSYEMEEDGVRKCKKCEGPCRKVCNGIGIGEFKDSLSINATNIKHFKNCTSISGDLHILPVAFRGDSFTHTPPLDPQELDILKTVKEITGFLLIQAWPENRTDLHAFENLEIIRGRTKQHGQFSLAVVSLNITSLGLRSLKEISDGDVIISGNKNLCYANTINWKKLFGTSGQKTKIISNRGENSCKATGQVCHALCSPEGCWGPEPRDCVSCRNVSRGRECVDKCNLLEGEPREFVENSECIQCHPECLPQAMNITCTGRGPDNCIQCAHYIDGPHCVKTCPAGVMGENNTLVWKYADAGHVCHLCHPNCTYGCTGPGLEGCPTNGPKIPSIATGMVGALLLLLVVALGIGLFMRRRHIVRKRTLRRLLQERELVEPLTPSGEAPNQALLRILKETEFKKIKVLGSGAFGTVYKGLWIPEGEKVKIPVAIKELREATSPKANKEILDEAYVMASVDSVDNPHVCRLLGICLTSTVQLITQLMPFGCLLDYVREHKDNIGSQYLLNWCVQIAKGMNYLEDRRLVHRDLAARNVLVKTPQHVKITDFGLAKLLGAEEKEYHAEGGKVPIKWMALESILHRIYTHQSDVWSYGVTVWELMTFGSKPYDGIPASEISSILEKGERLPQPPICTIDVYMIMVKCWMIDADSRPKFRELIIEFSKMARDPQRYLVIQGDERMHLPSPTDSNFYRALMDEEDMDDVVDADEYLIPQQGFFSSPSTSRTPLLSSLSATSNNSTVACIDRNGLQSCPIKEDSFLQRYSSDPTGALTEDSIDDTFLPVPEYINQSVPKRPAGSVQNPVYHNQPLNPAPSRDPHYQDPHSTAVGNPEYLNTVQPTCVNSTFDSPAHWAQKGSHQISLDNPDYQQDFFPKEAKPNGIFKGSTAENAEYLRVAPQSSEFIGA
Sequence of Ba/F3-FL-EGFR-V769-D770 ins ASV (P00533 with tags, fused parts or gaps DUP767-769): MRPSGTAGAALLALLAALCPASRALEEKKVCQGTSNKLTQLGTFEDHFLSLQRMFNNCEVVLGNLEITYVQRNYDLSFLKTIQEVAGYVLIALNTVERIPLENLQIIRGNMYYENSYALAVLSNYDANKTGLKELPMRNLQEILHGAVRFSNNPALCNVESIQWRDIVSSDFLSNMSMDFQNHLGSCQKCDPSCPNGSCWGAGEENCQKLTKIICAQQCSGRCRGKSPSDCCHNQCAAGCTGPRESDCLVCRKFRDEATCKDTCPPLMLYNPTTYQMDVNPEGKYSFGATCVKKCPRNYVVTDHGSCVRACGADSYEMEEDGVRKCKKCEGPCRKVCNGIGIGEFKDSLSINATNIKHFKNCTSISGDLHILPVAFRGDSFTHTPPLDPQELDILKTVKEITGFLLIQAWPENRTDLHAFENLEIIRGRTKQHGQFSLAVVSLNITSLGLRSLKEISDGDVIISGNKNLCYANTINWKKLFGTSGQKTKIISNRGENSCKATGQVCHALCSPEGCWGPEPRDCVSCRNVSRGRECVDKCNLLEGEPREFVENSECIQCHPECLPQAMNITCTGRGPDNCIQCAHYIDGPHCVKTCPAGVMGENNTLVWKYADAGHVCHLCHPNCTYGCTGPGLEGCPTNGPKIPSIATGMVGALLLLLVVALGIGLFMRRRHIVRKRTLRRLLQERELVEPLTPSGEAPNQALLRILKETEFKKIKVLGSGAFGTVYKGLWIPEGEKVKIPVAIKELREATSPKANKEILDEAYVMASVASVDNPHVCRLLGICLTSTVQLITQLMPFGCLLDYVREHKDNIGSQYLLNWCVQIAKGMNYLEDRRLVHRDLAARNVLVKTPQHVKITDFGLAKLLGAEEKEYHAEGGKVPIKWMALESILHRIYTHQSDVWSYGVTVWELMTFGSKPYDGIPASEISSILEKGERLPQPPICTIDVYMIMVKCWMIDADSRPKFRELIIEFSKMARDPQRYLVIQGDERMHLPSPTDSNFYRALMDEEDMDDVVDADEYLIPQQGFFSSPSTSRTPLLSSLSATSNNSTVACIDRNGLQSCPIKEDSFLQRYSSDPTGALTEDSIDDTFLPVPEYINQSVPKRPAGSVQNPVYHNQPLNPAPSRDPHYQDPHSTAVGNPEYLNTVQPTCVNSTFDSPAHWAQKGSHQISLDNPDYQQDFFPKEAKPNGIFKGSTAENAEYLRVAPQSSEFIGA
Sequence of Ba/F3-FL-EGFR-A763-Y764 ins FQEA (P00533 with tags, fused parts or gaps INS763FQEA): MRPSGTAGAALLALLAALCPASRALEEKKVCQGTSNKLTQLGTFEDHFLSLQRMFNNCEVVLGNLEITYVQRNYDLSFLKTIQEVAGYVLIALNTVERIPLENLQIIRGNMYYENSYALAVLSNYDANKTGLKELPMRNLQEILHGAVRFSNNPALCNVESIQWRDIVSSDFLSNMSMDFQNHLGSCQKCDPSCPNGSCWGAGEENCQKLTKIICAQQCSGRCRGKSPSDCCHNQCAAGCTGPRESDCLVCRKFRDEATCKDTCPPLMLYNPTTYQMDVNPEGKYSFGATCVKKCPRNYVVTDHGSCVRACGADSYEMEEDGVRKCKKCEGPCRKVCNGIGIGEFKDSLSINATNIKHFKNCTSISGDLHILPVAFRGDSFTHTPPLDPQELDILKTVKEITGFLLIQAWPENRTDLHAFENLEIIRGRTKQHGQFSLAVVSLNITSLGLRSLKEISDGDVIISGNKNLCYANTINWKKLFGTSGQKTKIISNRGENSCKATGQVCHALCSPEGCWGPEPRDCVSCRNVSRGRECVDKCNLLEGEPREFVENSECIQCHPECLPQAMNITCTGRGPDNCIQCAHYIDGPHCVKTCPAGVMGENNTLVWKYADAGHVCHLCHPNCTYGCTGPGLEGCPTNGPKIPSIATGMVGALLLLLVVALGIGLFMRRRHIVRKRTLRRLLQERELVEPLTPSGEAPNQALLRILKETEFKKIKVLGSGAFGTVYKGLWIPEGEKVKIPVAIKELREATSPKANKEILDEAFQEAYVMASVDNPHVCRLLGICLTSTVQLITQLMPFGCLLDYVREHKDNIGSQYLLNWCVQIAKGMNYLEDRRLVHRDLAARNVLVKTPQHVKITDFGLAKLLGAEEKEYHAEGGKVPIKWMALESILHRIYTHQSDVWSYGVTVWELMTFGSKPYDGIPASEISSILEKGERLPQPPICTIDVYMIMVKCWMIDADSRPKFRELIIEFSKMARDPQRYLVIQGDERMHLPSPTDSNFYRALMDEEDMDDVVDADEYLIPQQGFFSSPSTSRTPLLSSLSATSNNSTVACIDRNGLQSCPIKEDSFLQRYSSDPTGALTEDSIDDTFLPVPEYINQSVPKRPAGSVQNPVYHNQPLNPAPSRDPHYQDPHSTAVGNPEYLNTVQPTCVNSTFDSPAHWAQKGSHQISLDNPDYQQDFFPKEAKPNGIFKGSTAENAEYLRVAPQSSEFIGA
Sequence of Ba/F3-FL-EGFR-H773-V774 ins NPH (P00533 with tags, fused parts or gaps DUP771-773): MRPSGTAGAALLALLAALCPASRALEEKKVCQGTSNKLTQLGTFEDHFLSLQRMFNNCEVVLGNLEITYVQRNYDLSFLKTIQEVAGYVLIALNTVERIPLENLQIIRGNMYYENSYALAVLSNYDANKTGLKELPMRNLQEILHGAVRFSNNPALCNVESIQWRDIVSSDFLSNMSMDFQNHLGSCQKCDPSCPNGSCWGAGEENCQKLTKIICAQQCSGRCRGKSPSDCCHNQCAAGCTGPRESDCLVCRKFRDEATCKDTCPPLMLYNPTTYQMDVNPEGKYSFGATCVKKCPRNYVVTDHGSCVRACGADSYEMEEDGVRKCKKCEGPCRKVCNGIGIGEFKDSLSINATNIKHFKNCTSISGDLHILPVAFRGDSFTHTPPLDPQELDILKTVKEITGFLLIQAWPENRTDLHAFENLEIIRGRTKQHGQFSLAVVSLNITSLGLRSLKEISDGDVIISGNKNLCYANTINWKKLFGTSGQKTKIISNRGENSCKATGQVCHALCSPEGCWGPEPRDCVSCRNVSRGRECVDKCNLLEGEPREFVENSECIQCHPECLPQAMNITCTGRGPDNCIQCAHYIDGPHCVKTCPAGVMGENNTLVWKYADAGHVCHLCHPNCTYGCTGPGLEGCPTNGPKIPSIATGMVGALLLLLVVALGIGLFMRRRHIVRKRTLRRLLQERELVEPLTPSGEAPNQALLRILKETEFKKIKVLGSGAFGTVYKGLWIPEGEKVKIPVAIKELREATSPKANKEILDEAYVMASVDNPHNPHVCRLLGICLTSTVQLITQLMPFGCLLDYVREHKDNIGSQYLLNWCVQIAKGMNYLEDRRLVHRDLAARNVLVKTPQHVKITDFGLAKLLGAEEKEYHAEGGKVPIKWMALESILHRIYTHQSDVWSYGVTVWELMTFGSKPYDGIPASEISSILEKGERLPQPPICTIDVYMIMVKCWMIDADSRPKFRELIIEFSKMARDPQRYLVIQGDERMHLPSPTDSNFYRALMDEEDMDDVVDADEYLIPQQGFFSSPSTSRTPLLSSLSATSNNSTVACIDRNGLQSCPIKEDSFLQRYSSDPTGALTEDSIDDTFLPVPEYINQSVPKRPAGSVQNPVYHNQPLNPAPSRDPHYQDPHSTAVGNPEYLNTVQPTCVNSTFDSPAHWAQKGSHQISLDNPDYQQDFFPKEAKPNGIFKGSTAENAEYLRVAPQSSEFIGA

Take `C=CC(=O)Nc1cc(Nc2ncc(C(=O)OC(C)C)c(-c3cn(C)c4ccccc34)n2)c(OC)cc1N(C)[C@H]1[C@@H]2CN(C)C[C@@H]21` [Example 40, reference compound]: the “TGI (%)” value in experiment [1] came to 37.84%.

Consider `[2H]C([2H])([2H])N1C[C@@H]2[C@H](C1)[C@@H]2N(C)c1cc(OC)c(Nc2ncc(-c3nnc(C)o3)c(-c3cn(C)c4ccccc34)n2)cc1NC(=O)C=C` [Example 8], for which the GI50 in experiment [2], in experiment [3], in experiment [4] and in experiment [5] was at most 30 nM throughout.

On to `C=CC(=O)Nc1cc(Nc2ncc(-c3nnc(C)o3)c(-c3cn(C)c4ccccc34)n2)c(OC)cc1N(C)[C@H]1[C@@H]2CN(C)C[C@@H]21` [Example 18, reference compound], for which, in experiment [1], the “TGI (%)” value is given as 32.22%.

Regarding `[2H]C([2H])([2H])N(c1cc(OC)c(Nc2ncc(C(=O)OC(C)C)c(-c3cn(C)c4ccccc34)n2)cc1NC(=O)C=C)[C@@H]1[C@@H]2CN(C)C[C@@H]21` [Example 3], the GI50 in experiment [2], in experiment [3], in experiment [4] and in experiment [5] was at most 30 nM throughout.

For `[2H]C([2H])([2H])N(c1cc(OC)c(Nc2ncc(-c3nnc(C)o3)c(-c3cn(C)c4ccccc34)n2)cc1NC(=O)C=C)[C@@H]1[C@@H]2CN(C)C[C@@H]21` [Example 7], the GI50 in experiment [2], in experiment [3], in experiment [4] and in experiment [5] was at most 30 nM each time.

Regarding `[2H]C([2H])([2H])n1cc(-c2nc(Nc3cc(NC(=O)C=C)c(N(C)[C@@H]4[C@@H]5CN(C)C[C@@H]54)cc3OC)ncc2C(=O)OC(C)C)c2ccccc21` [Example 2], the GI50 in experiment [2], in experiment [3], in experiment [4] and in experiment [5] was at most 30 nM each time.

The values above are taken from patent US20260250270A1, “Compound Used as Kinase Inhibitor and Use Thereof” (TYK MEDICINES, INC., priority 2022, published 2026).
